From publication PMC2222910 (The Journal of General Physiology, 1999) come the findings set out here.

In the assay the target is T1, P2X2 purinoceptor (Rattus norvegicus, UniProt P49653).
T1 sequence (P49653 1-472): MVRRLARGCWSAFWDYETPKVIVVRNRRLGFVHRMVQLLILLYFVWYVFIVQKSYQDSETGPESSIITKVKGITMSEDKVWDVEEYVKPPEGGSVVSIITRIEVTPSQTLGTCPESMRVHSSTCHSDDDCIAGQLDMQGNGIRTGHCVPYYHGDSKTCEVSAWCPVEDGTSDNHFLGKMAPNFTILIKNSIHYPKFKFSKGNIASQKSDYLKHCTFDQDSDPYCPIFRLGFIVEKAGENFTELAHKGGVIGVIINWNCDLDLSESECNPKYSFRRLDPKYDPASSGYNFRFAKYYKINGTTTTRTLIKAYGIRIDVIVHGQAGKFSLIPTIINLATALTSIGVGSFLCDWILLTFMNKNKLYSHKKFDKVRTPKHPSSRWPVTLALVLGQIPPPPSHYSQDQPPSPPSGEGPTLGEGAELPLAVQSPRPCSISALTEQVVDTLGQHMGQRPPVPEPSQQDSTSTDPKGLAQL
The experiment in a line: single channel patch clamp of outside-out patches, Xenopus oocytes. In kind it is cell-based. (In general: The patch-clamp technique gives a direct electrical read-out from membranes.)

A word on the EC50: it is the concentration at which the effect is half-maximal. Read a low EC50 as higher potency in that assay. In turn, `Nc1ncnc2c1ncn2[C@@H]1O[C@H](COP(=O)(O)OP(=O)(O)OP(=O)(O)O)[C@@H](O)[C@H]1O` [ATP] registered a 50% effective concentration (EC50) of 11.2 µM.
